From article PMC8329300, “X-ray crystallography reveals molecular recognition mechanism for sugar binding in a melibiose transporter MelB” (Communications Biology, 2021)

Molecular target: T1, MelBSt D59A (Salmonella typhimurium, UniProt P30878, D59A)
T1 construct: Cys scanning mutagenesis for the full-length MelBSt; expressed in transfected cells; host or cells: E. coli DW2 (melA+, melB-, lacZ-Y-)
Assay: [3H]Melibiose transport time course with DW2 intact cells expressing MelBSt D59A
Type: cell-based
Conditions: 0.4 mM [3H]melibiose
Experimental: Fig. 1 Functional characterizations. a [^3H] Melibiose transport time course with intact cells. E. coli DW2 strain (melB^−, lacZ^−Y^−) expressed with the WT, D59C, or D59A MelBSt mutants were subjected to [^3H]melibiose active transport assay at 0.4 mM and 10 mCi/mmol in the presence of 20 mM or 100 mM NaCl or LiCl by a fast filtration method. Inset, melibiose fermentation assay. Transformants with DW2 strain were plated on MacConkey agar plates containing 30 mM melibiose as the sole carbohydrate source and pH sensor neutral red, and incubated at 37 °C for 16–18 h before imaging. Number of tests = 3, from different batch of cells or duplicate measurements from same batch of sample. b Ligand binding by Trp→dansyl galactoside (D^2G) FRET assay. Purified proteins at 1 μM concentration in 20 mM Tris-HCl, pH 7.5, 100 mM CholCl, 10% glycerol, and 0.03% UDM were subjected to steady-state fluorescence measurements as described in Methods. On the time-trace, 1.8 μL of 1 mM D^2G at 10 μM was added into 180 μL of protein solutions at 1-min point, followed by supplying 10 μL of 5 mM DDMB or 5 mM α-NPG to displace the bound D^2G. For testing Na^+ or Li^+ binding, they are added into the solution before displacement with the second sugar. The structure of DDMB or α-NPG is shown in a chair form, and the carbon positions are labeled. Glycosidic bonds are indicated by arrows. Both are α-galactosides containing a substituent at the anomeric carbon-1. The data were from duplicate measurements.
The overexpression of MelBSt was carried out in the E. coli DW2 strain (melA^+, melB^−, and lacZ^−Y^−) from a constitutive expression plasmid pK95ΔAH/MelBSt/CHis10[9],[28],[33]. The D59C or D59A mutant with Cys or Ala at the position 59, respectively, was constructed previously[9] or in this study by QuikChange Site-Directed Mutagenesis kit and confirmed by DNA sequencing analysis. E. coli DW2 cells containing a given plasmid were grown in Luria-Bertani (LB) broth (5 g yeast extract and 10 g tryptone per liter with 171 mM NaCl) with 100 mg/L of ampicillin in a 37 °C shaker. The overnight cultures were diluted by 5% with LB broth supplemented with 0.5% glycerol and 100 mg/L of ampicillin, and constitutive overexpression was obtained by shaking at 30 °C for another 5 h.
E. coli DW2 cells expressing MelBSt were washed with 100 mM KPi, pH 7.5, to remove Na^+ contamination as described previously. The cell pellets were resuspended with the assay buffer (100 mM KPi, pH 7.5, 10 mM MgSO4) and adjusted to A420 of 10 (∼0.7 mg protein/ml). Using a fast filtration, transport time course at 0.4 mM melibiose (at specific activity of 10 mCi/mmol) was carried out in the absence or presence of NaCl or LiCl at 20 mM or 100 mM, respectively, and intracellular melibiose was determined as described previously.

T1 sequence (P30878 whole entry D59A): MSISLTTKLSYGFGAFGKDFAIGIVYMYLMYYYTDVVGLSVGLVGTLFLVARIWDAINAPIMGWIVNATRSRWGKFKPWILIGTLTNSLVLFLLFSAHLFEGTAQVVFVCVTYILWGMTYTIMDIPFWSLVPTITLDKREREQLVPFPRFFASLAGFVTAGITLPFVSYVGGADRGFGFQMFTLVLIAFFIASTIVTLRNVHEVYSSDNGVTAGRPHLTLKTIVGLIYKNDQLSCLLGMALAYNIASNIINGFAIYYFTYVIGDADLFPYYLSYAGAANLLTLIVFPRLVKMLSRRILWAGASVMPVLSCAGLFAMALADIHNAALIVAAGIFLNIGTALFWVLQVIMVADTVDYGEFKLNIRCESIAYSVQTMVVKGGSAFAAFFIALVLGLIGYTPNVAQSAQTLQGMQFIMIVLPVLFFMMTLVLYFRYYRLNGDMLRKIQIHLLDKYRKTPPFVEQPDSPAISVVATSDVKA

## OC[C@H]1O[C@H](OCC2O[C@@H](O)[C@H](O)[C@@H](O)[C@@H]2O)[C@H](O)[C@@H](O)[C@H]1O (some centres unmarked) [Melibiose]
H+, Time 0.17
  Melibiose transport: 9.09
H+, Time 0.50
  Melibiose transport: 8.49
H+, Time 1.00
  Melibiose transport: 2.84
H+, Time 2.00
  Melibiose transport: 1.86
H+, Time 5.00
  Melibiose transport: 1.70
H+, Time 10.00
  Melibiose transport: 1.53
H+, Time 30.00
  Melibiose transport: 1.58
Li+, 20 mM, Time 0.17
  Melibiose transport: 0.82
Li+, 20 mM, Time 0.50
  Melibiose transport: 1.81
Li+, 20 mM, Time 1.00
  Melibiose transport: 0.66
Li+, 20 mM, Time 2.00
  Melibiose transport: 4.29
Li+, 20 mM, Time 5.00
  Melibiose transport: 3.59
Li+, 20 mM, Time 10.00
  Melibiose transport: 1.72
Li+, 20 mM, Time 30.00
  Melibiose transport: 4.17
Na+, 20 mM, Time 0.17
  Melibiose transport: 4.09
Na+, 20 mM, Time 0.50
  Melibiose transport: 2.70
Na+, 20 mM, Time 1.00
  Melibiose transport: 2.54
Na+, 20 mM, Time 2.00
  Melibiose transport: 5.43
Na+, 20 mM, Time 5.00
  Melibiose transport: 1.63
Na+, 20 mM, Time 10.00
  Melibiose transport: 1.16
